# Measured values published in US12685708B2, “Skin care composition” (BEIERSDORF AG, priority 2019, dated 2026).
# Assays:
# Format in all cases: cell-based, Cutibacterium acnes
# [1] = test system: C. acnes strain K8; assay: Evaluation of the minimum inhibitory concentration (MIC) of cosmetic excipients; settings: % w/vol, incubated anaerobically 3 days at 37° C., scored for growth or complete growth inhibition
# Method: (§1) In microbiology, the MIC is the lowest concentration of a chemical which prevents visible growth of bacterium. The resulted MIC value depends both on the microorganism and the test compound. The MIC is determined by preparing concentrations series of the test compound in vitro, incubating the solutions with the separate batches of cultured bacteria, and measuring the results using agar dilution or broth microdilution. For the experiments with C. acnes strains C3 and K8, media comprising yeast extract soy peptone and dextrose were used. The MIC is determined by turbidity.
# (§2) A total of 125 cosmetic excipients were tested for their compatibility with C. acnes strains C3 and K8. Hydrophilic compounds were tested in a 96-well plate liquid broth format, poorly soluble compounds were pre-dissolved in DMSO before dilution in liquid broth and hydrophobic or solid compounds were tested in an agar well diffusion test assay. The different dilutions of the test excipients in media were prepared in Falcon tubes and then distributed in a deep well plate using a multistepper. Each well received 1.2 ml and was subsequently inoculated with 120 μl of C. acnes bacteria suspension (strain C3 and K8). From the deep well plate 200 μl were transferred in each well of a clear 96 well replicate plate. The leftover was discarded. The plates were then incubated anaerobically for 3 days at 37° C. Following incubation, the test plates were visually examined and wells were scored for growth or complete growth inhibition to define the minimum inhibitory concentration.
# (§3) These excipients are listed in the below table with their compatibility values for C. acnes strains C3 and K8. The compatibility values represent the MIC value of the listed ingredients with the tested C. acnes strains. At this concentration [% w/vol] the tested compound starts interfering with the growth of the tested strains. The compounds can be used in formulations at concentrations below this concentration.
# [2] = test system: C. acnes strain C3; assay: as above; settings: % w/vol, incubated anaerobically 3 days at 37° C., scored for growth or complete growth inhibition
# Method: as §1, §2, §3
# [3] = test system: freeze-dried C. acnes strains K8 and C3; assay: Reactivation assay of freeze dried bacteria in formulations (CFU count); settings: statement in the description
# Excerpt: For this purpose, a freeze-dried powder of C. acnes strains K8 and C3 was produced and mixed with other ingredients as indicated below. Ingredients are listed in % (w/w). The formulations were provided in two pre-mixed compositions A and B that were finally mixed with each other. The following formulations were made: […]
# The formulations are depicted in the form of a table in FIG. 1. For formulations 1-11, the CFU target value was 1×10^7. For formulations 12-15, the CFU target value was 1×10^6. A CFU count was performed directly after mixing the formulation to assess the effect of the prototype formulation on the revival and subsequent stability rate of the bacteria. Briefly, the formula component A (lyophilisate/oil suspension) and the formula component B (hydrogel/aqueous solution) are mixed together and well vortexed. Directly after mixing an aliquot is removed and transferred to 0.9% NaCl. Further dilutions are plated on COST agar plates and incubated anaerobically at 37° C. for 5 days.
# Similar to the formulations tested in Example 2, another set of 11 prototype formulations was prepared with higher concentrations of the excipients of the invention. The formulations were tested as described in Example 2 for their impact on reactivation of freeze-dried C. acnes bacteria. As a control, a formulation containing the lyophilisate and low amounts of the excipients was prepared. […]
Compound,COMPATABILITY VALUE K8 [%] (MIC) [1],COMPATABILITY VALUE C3 [%] (MIC) [2],interference with viability and replication capability of the lyophilized or spray-dried bacteria [3]
CCCCCCC(O)CO (stereo not drawn) [caprylyl glycol],0.18%,0.18%,
O=C(O)CC(O)(CC(=O)O)C(=O)O [citric acid],0.08%,0.33%,
CC(CO)CO [methylpropanediol],4.00%,4.00%,
CC(=O)Oc1c(C)c(C)c2c(c1C)CCC(C)(CCC[C@H](C)CCC[C@H](C)CCCC(C)C)O2 (stereo partly drawn) [tocopheryl acetate],1.00%,1.00%,
ethylhexyl cocoate,10.00%,10.00%,
peg-40 hydrogenated castor oil,1.00%,1.00%,does not interfere
tocopherol,1.50%,1.50%,
